Key:
C-cell calcium receptor = target: T1, C-cell calcium receptor (Rattus norvegicus, UniProt P48442); assay: [Ca2+]i in rat medullary thyroid carcinoma C-cell line (44-2 cells); format: cell-based; conditions: 1 mM extracellular Ca2+, read-out: EC50 for increase in [Ca2+]i
T1 construct: cultured cell lines expressing the C-cell phenotype (e.g., rat medullary thyroid carcinoma cells; rMTC 6-23 cells); host or cells: rMTC 6-23 rat medullary thyroid carcinoma cells
T1 sequence (P48442 20-1079): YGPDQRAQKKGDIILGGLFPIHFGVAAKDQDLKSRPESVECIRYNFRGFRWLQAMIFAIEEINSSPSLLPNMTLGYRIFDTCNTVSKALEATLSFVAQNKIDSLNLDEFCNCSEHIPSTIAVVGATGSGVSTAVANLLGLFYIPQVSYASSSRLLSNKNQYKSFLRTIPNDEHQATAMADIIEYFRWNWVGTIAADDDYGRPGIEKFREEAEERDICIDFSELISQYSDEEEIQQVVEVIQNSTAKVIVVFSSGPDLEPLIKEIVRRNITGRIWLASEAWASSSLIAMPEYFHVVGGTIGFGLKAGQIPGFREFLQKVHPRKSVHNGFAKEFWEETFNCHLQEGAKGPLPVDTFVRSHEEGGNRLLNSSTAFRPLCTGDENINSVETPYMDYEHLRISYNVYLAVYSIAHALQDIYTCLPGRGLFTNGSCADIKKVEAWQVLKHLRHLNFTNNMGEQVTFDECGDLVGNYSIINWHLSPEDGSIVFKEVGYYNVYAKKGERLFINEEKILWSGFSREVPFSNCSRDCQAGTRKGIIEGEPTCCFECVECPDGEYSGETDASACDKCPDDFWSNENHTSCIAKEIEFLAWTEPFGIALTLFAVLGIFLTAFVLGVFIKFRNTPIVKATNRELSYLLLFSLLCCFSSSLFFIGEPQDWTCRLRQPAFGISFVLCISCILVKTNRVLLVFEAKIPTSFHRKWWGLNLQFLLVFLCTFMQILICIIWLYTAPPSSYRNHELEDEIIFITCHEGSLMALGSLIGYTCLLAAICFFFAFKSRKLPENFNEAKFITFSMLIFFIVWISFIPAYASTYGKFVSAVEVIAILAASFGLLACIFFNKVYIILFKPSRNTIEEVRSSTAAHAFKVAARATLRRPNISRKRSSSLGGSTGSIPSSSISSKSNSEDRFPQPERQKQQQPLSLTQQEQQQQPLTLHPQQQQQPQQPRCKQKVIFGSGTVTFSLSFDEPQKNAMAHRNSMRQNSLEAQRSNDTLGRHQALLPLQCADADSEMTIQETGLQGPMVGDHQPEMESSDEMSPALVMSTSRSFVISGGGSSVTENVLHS
Source text: C-cells appear to express a calcium receptor that is structurally similar to that present on parathyroid cells (see Example 31). […] Thus, compounds in this structural series appear to activate the C-cell calcium receptor.

thyroidectomized animals = assay: Hypocalcemic response in thyroidectomized rats; format: in vivo, rat; conditions: 3 to 100 mg/kg p.o.
Source text: In subsequent studies, rats received a thyroidectomy (parathyroid glands intact). This surgical procedure effectively removed the C-cells secreting calcitonin and therefore enabled the relative contributions of PTH and calcitonin to the hypocalcemic effect of this compound to be determined. […] The only difference was that the rate of onset of the hypocalcemic response was somewhat delayed in thyroidectomized animals. […] Stimulatory effects of this compound on calcitonin secretion increases the rate of onset, but not the extent, of hypocalcemia.

[1] = target: T2, osteoclast calcium receptor (Rattus norvegicus, UniProt P48442); assay: [Ca2+]i (indo-1) in single rat osteoclasts; format: cell-based
T2 sequence (P48442 20-1079): T1 sequence (P48442 20-1079)

calcium receptor = target: T3, calcium receptor (Homo sapiens, UniProt P41180); assay: Cl- current in Xenopus oocytes injected with human parathyroid cell mRNA; format: cell-based
T3 construct: poly(A)^+-enriched mRNA from human parathyroid tissue (hyperplastic glands from a case of secondary HPT); expressed in transfected cells; host or cells: Xenopus laevis oocytes injected with poly(A)+ mRNA from hyperplastic human parathyroid glands
T3 sequence (P41180 20-1078): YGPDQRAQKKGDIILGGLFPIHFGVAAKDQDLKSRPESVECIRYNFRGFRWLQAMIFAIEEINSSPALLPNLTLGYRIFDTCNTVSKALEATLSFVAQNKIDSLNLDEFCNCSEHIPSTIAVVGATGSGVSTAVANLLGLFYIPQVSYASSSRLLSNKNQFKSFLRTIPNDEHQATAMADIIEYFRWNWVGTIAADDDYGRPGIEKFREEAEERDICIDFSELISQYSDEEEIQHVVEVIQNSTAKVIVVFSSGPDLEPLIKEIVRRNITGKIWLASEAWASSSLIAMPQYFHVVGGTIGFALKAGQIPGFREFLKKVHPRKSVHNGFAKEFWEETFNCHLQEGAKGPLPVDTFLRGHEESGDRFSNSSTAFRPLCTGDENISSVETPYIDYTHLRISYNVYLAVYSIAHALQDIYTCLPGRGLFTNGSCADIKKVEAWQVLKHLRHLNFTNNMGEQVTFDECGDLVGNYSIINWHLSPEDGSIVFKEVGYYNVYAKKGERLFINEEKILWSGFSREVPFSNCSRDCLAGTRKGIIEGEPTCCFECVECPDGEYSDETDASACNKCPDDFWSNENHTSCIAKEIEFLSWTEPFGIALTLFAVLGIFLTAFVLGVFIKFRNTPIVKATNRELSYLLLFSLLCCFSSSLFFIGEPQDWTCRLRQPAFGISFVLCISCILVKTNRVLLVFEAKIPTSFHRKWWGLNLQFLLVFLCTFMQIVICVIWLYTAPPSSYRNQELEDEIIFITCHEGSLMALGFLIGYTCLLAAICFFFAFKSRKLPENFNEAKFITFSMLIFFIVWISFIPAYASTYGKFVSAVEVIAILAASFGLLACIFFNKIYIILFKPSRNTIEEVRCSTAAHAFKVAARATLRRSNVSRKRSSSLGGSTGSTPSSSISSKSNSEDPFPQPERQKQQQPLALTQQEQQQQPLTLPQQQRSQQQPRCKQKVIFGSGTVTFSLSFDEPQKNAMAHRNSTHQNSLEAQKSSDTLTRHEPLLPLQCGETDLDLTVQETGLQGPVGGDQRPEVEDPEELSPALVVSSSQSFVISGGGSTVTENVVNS
Protocol: Oocytes were injected with poly(A)^+-enriched mRNA from human parathyroid tissue (hyperplastic glands from a case of secondary HPT).
Following incubation, an oocyte was placed into a 100-μl plastic chamber and superfused with MBS at a flow rate of 0.5 ml/min using a peristaltic pump. Test molecules or inorganic polycations were added by rapidly moving the tubing into different buffers. Recording and current-passing electrodes were constructed from thin-wall capillary tubing pulled to a resistance of 1-3 Mohms and filled with 3 M KCl. […] Currents were recorded directly onto a strip chart recorder.
Using this screen allows one to test for an action directly on the calcium receptor. Oocytes expressing the calcium receptor also responded to several molecules active on intact parathyroid cells when screened as follows. […] This offers rather compelling evidence showing that these molecules act on the calcium receptor or on some other protein intimately associated with its function.

SMILES | EC50 (C-cell calcium receptor) | hypocalcemic response (thyroidectomized animals) | compounds that caused any large increase in [Ca2+]i [1] | effect on response to subsequent extracellular Ca2+ [1] | increase in [Ca2+]i [1] | EC50 OSTEOCLAST ([1]; Table 6, rat osteoclasts, indo-1) | change in current in water-injected oocytes (calcium receptor; 10 mM, five water-injected oocytes) | mobilization of intracellular Ca2+ in oocytes (calcium receptor; hexacyclen 135 μM, neomycin 100 μM, NPS 382 5 mM)
COc1cccc([C@@H](C)NCCCc2ccccc2)c1 (single isomer, unassigned) [NPS R-467] | 1.9 µM |  |  |  |  |  |  | 
COc1cccc([C@@H](C)NCCCc2ccccc2Cl)c1 [NPS R-568, (R)-(+)-N-[3-(2-chlorophenyl)propyl]-α-methyl-3-methoxybenzylamine] | 2.2 µM | hypocalcemic response equal in magnitude to that produced in sham-operated animals |  |  |  |  |  | 
NC[C@@H]1O[C@H](O[C@H]2[C@@H](O)[C@H](O[C@@H]3[C@@H](O)[C@H](N)C[C@H](N)[C@H]3O[C@H]3O[C@H](CN)[C@@H](O)[C@H](O)[C@H]3N)O[C@@H]2CO)[C@H](N)[C@@H](O)[C@@H]1O [Neomycin B, neomycin B] |  |  | none | did not block the increase | failed to evoke any increase | inactive | failed to cause any change in the current | effective

— patent US20130190407A1, “CALCIUM RECEPTOR-ACTIVE MOLECULES” (NPS Pharmaceuticals, Inc., priority 1991, published 2013)
